Measured values: paper PMC11224556, “Next-generation of BBQ analogues that selectively target breast cancer” (Frontiers in Chemistry, 2024)

Molecular target: T1, AhR (Homo sapiens, UniProt P35869)
T1 construct: This cell line stably expresses the secreted Lucia luciferase reporter gene under the control of a minimal promoter; host or cells: HT29-Lucia AhR reporter cells
T1 sequence (P35869 11-848): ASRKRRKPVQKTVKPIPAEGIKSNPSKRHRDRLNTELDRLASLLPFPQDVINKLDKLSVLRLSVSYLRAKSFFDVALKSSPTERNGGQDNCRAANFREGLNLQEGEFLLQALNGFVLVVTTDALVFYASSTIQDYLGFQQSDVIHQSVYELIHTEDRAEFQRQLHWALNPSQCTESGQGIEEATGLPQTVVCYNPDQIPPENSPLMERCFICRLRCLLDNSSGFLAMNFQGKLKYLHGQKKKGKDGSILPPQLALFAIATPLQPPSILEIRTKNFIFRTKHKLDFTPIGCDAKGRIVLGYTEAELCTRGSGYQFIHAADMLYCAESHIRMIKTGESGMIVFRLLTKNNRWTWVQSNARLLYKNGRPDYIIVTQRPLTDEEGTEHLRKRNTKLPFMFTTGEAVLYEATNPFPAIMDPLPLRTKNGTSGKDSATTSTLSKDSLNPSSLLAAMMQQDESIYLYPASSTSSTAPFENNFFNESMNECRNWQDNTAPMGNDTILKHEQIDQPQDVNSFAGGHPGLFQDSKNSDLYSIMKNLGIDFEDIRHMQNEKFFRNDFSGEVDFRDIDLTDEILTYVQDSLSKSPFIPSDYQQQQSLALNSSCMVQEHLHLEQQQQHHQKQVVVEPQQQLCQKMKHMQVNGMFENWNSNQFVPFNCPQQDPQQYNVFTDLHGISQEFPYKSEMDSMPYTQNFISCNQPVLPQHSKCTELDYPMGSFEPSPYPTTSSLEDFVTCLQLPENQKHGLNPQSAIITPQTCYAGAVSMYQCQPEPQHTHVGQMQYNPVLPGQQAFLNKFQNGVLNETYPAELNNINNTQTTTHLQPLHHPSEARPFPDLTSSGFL
Assay: AhR transcription reporter assay (HT29-Lucia AhR cells)
Type: cell-based
Settings: 1 µM, 24 h, relative to DMSO
Text: Our previous studies have shown that the activity of NAP-6 (2) and 10-Cl-BBQ (3) required the activation of the AhR pathway and the induction of CYP1 family of phase I metabolising enzymes ([Gilbert et al., 2020]; [Baker et al., 2021a]). Therefore, we sought to determine the activation of AhR using a stable AhR reporter assay in HT29-Lucia™ AhR cells, in the presence of each BBQ analogue (Figure 3). Activation of the AhR was indicated by enhanced luminescence caused by the translocation of the AhR to the nucleus of the cell and interaction with the xenobiotic response elements imbedded in the luciferase gene.
Stock solutions were prepared as follows and stored as 20 mM DMSO solutions at −20 °C. All cell lines were cultured in a humidified atmosphere 5% CO2 at 37 °C. The cancer cell lines were maintained in Dulbecco’s modified Eagle’s medium (DMEM) (Trace Biosciences, Australia) supplemented with 10% foetal bovine serum (FBS), 10 mM sodium bicarbonate, penicillin (100 IU/mL), streptomycin (100 μg/mL), and glutamine (4 mM). The non-cancer MCF10A cell line was cultured in DMEM:F12 (1:1) cell culture media, 5% heat inactivated horse serum, supplemented with penicillin (50 IU/mL), streptomycin (50 μg/mL), 20 mM Hepes, L-glutamine (2 mM), epidermal growth factor (20 ng/mL), hydrocortisone (500 ng/mL), cholera toxin (100 ng/mL), and insulin (10 μg/mL). The AhR reporter cell line HT29-Lucia™ (Invivogen, United States) was maintained in DMEM supplemented with 10% heat inactivated FBS, L-glutamine (2 mM), penicillin (100 IU/mL), streptomycin (100 μg/mL), 100 μg/mL Normocin™, and 100 μg/mL of the selective antibiotic Zeocin™. All cell lines were purchased from the American Type Culture Collection (ATCC), except for A2780 and A431 which were from the European Collection of Authenticated Cell Cultures (ECACC), and SJ-G2 cell line which was from Dr Mary Danks, St Jude Children’s Research hospital, Memphis, TN.
The activity of the AhR signalling pathway was measured using the stably transfected AhR cell line, HT29-Lucia™ (Invivogen, United States). This cell line stably expresses the secreted Lucia luciferase reporter gene under the control of a minimal promoter coupled with the human CYP1A1 gene entire regulatory sequence, containing six DREs. The Lucia luciferase reporter protein is readily measurable in the cell culture supernatant using QUANTI-Luc™. For the determination of AhR activity, 4 × 10^4 cells in 180 μL was plated into each well of a 96 well micro-titre plate in the absence of antibiotics and allowed to culture for 24 h prior to the addition of test compounds in a volume of 20 μL. At the indicated time, 20 μL of cell supernatant was transferred to a white luminometer plate and 50 µL of QUANTI-Luc was added immediately prior to reading the luminescence using a GloMax Explorer Luminescence Plate Reader. The promoter activity was conducted in duplicate and the values expressed as fold-change relative to DMSO (0.1%) treated cells. The AhR ligand, FICZ (6-formylindolo[3,2-b]carbazole) and AhR inhibitor CH223191 were included for study as positive and negative controls, respectively. […] Results are presented as the mean ± standard error of the mean (SEM) of analysis conducted in duplicate and repeated on three separate occasions.

| Compound | AhR activation, Fold Reporter Induction [fold] |
| --- | --- |
| 9-Methyl-7H-benzo[de]benzo[4,5]imidazo[2,1-a]isoquinolin-7-one (8a) and 12-methyl-7H-benzo[de]benzo[4,5]imidazo[2,1-a]isoquinolin-7-one (8b) [Compound 8] | 2.5 |
| O=c1c2cccc3cccc(c4n1Cc1ccccc1N=4)c32 [Compound 13, 7H,9H-benzo[4,5]isoquinolino[1,2-b]quinazolin-7-one] | 1.8 |
| 3-Chloro-7H-benzo[de]benzo[4,5]imidazo[2,1-a]isoquinolin-7-one (10a) and 4-chloro-7H-benzo[de]benzo[4,5]imidazo[2,1-a]isoquinolin-7-one (10b) [Compound 10] | 2.7 |
| O=c1c2ccccc2cc2[nH]c3ccccc3n12 [Compound 12, Benzo[4,5]imidazo[1,2-b]isoquinolin-11(5H)-one] | 1.2 |
| Nc1ccccc1N1C(=O)c2cccc3cccc(c23)C1=O [Compound 2, 2-(2-aminophenyl)-1H-benzo[de]isoquinoline-1,3(2H)-dione] | 1.8 |
| 3-Nitro-7H-benzo[de]benzo[4,5]imidazo[2,1-a]isoquinolin-7-one (11a) and 4-nitro-7H-benzo[de]benzo[4,5]imidazo[2,1-a]isoquinolin-7-one (11b) [Compound 11] | 10.2 |
| 7-Oxo-7H-benzo[de]benzo[4,5]imidazo[2,1-a]isoquinoline-10-carbonitrile (9a) and 7-oxo-7H-benzo[de]benzo[4,5]imidazo[2,1-a]isoquinoline-11-carbonitrile (9b) [Compound 9] | 2.5 |
| 10-Methyl-7H-benzo[de]benzo[4,5]imidazo[2,1-a]isoquinolin-7-one (7a) and 11-methyl-7H-benzo[de]benzo[4,5]imidazo[2,1-a]isoquinolin-7-one (7b) [Compound 7] | 2.8 |
| O=c1c2cccc3cccc(c32)c2nc3ccccc3n12 [Compound 5, 7H-Benzo[de]benzo[4,5]imidazo[2,1-a]isoquinolin-7-one] | 3.1 |
| O=c1c2cccc3cccc(c32)c2nc3cc(Cl)ccc3n12 [Compound 4, 11-Chloro-7H-benzo[de]benzo[4,5]imidazo[2,1-a]isoquinolin-7-one] | 2.9 |
| O=c1c2cccc3cccc(c32)c2nc3ccc(Cl)cc3n12 [Compound 3, 10-Chloro-7H-benzo[de]benzo[4,5]imidazo[2,1-a]isoquinolin-7-one] | 2.7 |
| O=C(O)c1ccc2c3c1cccc3c(=O)n1c3ccccc3nc21 [Compound 14, reference compound] | 1.5 |
